Laboratory results as given in US4921847A, “Trihalo(amine)gold(III) anti-tumor complexes” (Engelhard Corporation, priority 1989, dated 1990).

Key:
S180 ascites = assay: Anti-tumor evaluation against S180 ascites in mice (% increase in life span, survivors); assay type: in vivo, female CFW Swiss mice; settings: S 180 ascites; for Survivors: day of evaluation
Method: The above prepared compounds were evaluated against S180 ascites in female CFW Swiss mice. The mice were weighed (average weight: 20 g), placed into cages (six mice to a cage) and on day zero the mice were inoculated with 0.2 ml of a freshly prepared saline suspension (0.15 M NaCl) containing 1×10^7 tumor cells/ml or a total of 2×10^6 cells. This inoculum was freshly prepared using "transfer" mice which had been injected with tumor cells the previous week; it was obtained via the following steps: (1) the removal of cells from the peritoneal cavity of the sacrificed transfer mouse, (2) alternate centrifugation and washing operations (2-3 times with cold saline) to remove blood and other components, and (3) dilution of the volume of the packed cell with saline (1:3). A final centrifugation was carried out at 1000 RPM over a two minute period. A cell count was made on a 2,000-fold dilution of this 1:3 suspension by means of a Coulter Counter. A final dilution to 1×10^7 cells/ml was made based on the average count.
On day 1, solutions of the test compounds were prepared and each mouse in a set of six were injected with the same test compound at the same dosage. The doses were based on the average weight of the animals (cage weight). Also, beginning on day 1 two controls were employed containing six mice per control:
(1) Normal Control: This consisted solely of the carrier or diluent used in combination with the test compound; and
(2) Positive Control: This consisted solely of the known anti-tumor agent cis-[Pt(NH3)2 Cl2 ] (Cisplatin) in saline (8 mg/kg) to test the response of the biological system.
The effectiveness of a test compound was measured in terms of the % increase in life span (%ILS) of the test mice relative to the Normal Control (Calculated from the day of tumor inoculation, i.e., day zero). To standardize the test data and permit intercomparisons, the day of evaluation was arbitrarily taken as that day corresponding to twice the mean life span (or average day of death) of the control. This established a practical upper limit of 100% on the %ILS attainable. For calculation purposes the survivors on the day of evaluation were considered to have died on that day. The %ILS was calculated as follows: [formula] ILS values in excess of 50% were interpreted as being indicative of anti-tumor activity, whereas, values in excess of 75% indicated excellent activity.
The products of Examples 1, 4, 10 and 11 were administered in a freshly prepared 1% sodium bicarbonate solution; the remaining test compounds were administered as slurries in 0.5% "Klucel" (hydroxypropylcellulose).

Sarcoma 180 tumors = assay: Therapeutic index (LD50/ED90), implanted Sarcoma 180 tumors; assay type: in vivo, Swiss white mice; set-up: ED90: unit not given here; settings: for Therapeutic Index: LD50/ED90; for Maximum % ILS (Dosage): S 180 ascites; for ED90: dose giving 50% increase in life span for 90% of the animals, determined graphically
Solubility = assay type: physicochemical

Row | Structure (SMILES) | % ILS (S180 ascites; 10 mg/kg) [%] | Survivors (S180 ascites; 10 mg/kg) | % ILS (S180 ascites; 20 mg/kg) [%] | Survivors (S180 ascites; 20 mg/kg) | % ILS (S180 ascites; 40 mg/kg) [%] | Survivors (S180 ascites; 40 mg/kg) | % ILS (S180 ascites; 80 mg/kg) [%] | Survivors (S180 ascites; 80 mg/kg) | % ILS (S180 ascites; 160 mg/kg) [%] | Survivors (S180 ascites; 160 mg/kg) | Therapeutic Index (Sarcoma 180 tumors) | Maximum % ILS (Dosage) (Sarcoma 180 tumors; 40 mg/kg) [%] | ED90 (Sarcoma 180 tumors) | % ILS (S180 ascites; 320 mg/kg) [%] | Survivors (S180 ascites; 320 mg/kg) | other results
1 | Cn1cc[n+]([Au-]([Cl])([Cl])[Cl])c1 [Example 2, Trichloro(N-Methylimidazole)Gold(III)] | 14 | 0 of 6 | 33 | 1 of 6 | 91 | 4 of 6 | 53 | 1 of 6 | -93 | 0 of 6 | 2.8 | 91 | 31 | – | – | peak ILS values (S180 ascites): > 90%; % ILS (S180 ascites; 5 mg/kg): 2%; Survivors (S180 ascites; 5 mg/kg): 0 of 6; Anti-tumor activity (in words) (S180 ascites; 50% ILS criterion): decidedly active; active dose range (S180 ascites; decidedly active within the range): 20 to 40 mg/kg
2 | O=C(O)c1ccc[n+]([Au-]([Br])([Br])[Br])c1 [Example 10] | -23 | 0 of 6 | 26 | 0 of 6 | 64 | 2 of 6 | 49 | 0 of 6 | -19 | 0 of 6 | – | – | – | -95 | 0 of 6 | solubility in 1% sodium bicarbonate solution (Solubility): 12.8 mg/mL
3 | OCc1ccc[n+]([Au-]([Cl])([Cl])[Cl])c1 [Example 6] | 6 | 0 of 6 | 63 | 1 of 6 | 85 | 3 of 6 | 46 | 0 of 6 | -70 | 0 of 6 | 2.1 | 85 | 43 | -93 | 0 of 6 | –
4 | Oc1ccc[n+]([Au-]([Cl])([Cl])[Cl])c1 [Example 5] | 9 | 0 of 6 | 39 | 2 of 6 | 61 | 3 of 6 | 30 | 2 of 6 | -36 | 0 of 6 | – | 61 | 87 | -85 | 0 of 6 | –
5 | Cn1cc[n+]([Au-]([Br])([Br])[Br])c1 [Example 9, Tribromo(N-Methylimidazole)Gold(III)] | 5 | 0 of 6 | 76 | 4 of 6 | 66 | 3 of 6 | -1 | 1 of 6 | -94 | 0 of 6 | 2.0 | – | 42 | -94 | 0 of 6 | Maximum % ILS (Dosage) (Sarcoma 180 tumors; 20 mg/kg): 76%
